# Data as given in US6610689B2, “HIV protease inhibitors based on amino acid derivatives” (priority 2001, dated 2003).
# Structures can show the parent of a compound that is named as a salt.
# Target: T1, HIV protease (Human immunodeficiency virus type 1 group M subtype B, UniProt P04585)
# T1 construct: A third viral enzyme known as protease then cleaves the polyproteins
# Assay: Enzymatic Assay for Determining the Inhibition Constant (Ki) of Synthetic Compounds Targeting the HIV Protease (fluorometric FRET assay)
# Type: biochemical
# Conditions: not given
# Procedure, shortened: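 Ki obtained via the Henderson equation from enzyme velocities with and without compound, accounting for substrate concentration and Km. Activity followed by FRET fluorescence from cleavage of a substrate flanked by EDANS donor and DABCYL acceptor.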
row,Structure (SMILES),Ki [nM]
1,"Cc1ccc(S(=O)(=O)N[C@@H](Cc2ccccc2)C(=O)NCCC[C@@H](C(=O)O)N(CC(C)C)S(=O)(=O)c2ccc(C)cc2)cc1 [Example 154, Nα-Isobutyl-Nα-(4-methylbenzenesulfonyl)-Nε-[N′α-(4-methylbenzenesulfonyl)-L-phenylalanyl]-L-ornithine]",> 300
2,"Cc1ccc(S(=O)(=O)N(CC(C)C)[C@H](CO)CCCCNC(=O)CN(Cc2ccccc2)c2ccccc2)cc1 [Example 156, (2S) 2-N-Isobutyl-2-N-(4-methylbenzenesulfonyl)-6-N-(N′α-benzyl-N′α-phenylglycyl)-2,6-diaminohexanol]",7.6
3,"Cc1ccc(S(=O)(=O)N(CC(C)C)[C@H](CO)CCCCNC(=O)CN(Cc2ccccc2)C(=O)c2ccccc2)cc1 [Example 158, (2S) 2-N-Isobutyl-2-N-(4-methylbenzenesulfonyl)-6-N-(N′α-benzoyl-N′α-benzylglycyl)-2,6-diaminohexanol]",95
4,"Cc1ccc(S(=O)(=O)N(CC(=O)NCCCC[C@@H](CO)N(CC(C)C)S(=O)(=O)c2ccc(C)cc2)Cc2ccccc2)cc1 [Example 159, (2S) 2-N-Isobutyl-2-N-(4-methylbenzenesulfonyl)-6-N-[N′α-benzyl-N′α-(4-methylbenzenesulfonyl)glycyl]-2,6-diaminohexanol]",101
5,"Cc1ccc(S(=O)(=O)N(CC(C)C)[C@H](CO)CCCCNC(=O)[C@H](Cc2c[nH]c3ccccc23)NS(=O)(=O)c2ccc(N)cc2)cc1 [Example 161, (2S,2′S) 2-N-Isobutyl-2-N-(4-methylbenzenesulfonyl)-6-N-[N′α-(4-aminobenzenesulfonyl)-S-tryptophanyl]-2,6-diaminohexanol]",1.4
6,"COc1ccc(CC(=O)N[C@@H](Cc2ccccc2)C(=O)NCCCC[C@@H](CO)N(CC(C)C)S(=O)(=O)c2ccc(C)cc2)cc1 [Example 162, (2S,2′S) 2-N-Isobutyl-2-N-(4-methylbenzenesulfonyl)-6-N-[N′α-(4-methoxyphenylacetyl)-S-phenylalanyl]-2,6-diaminohexanol]",1.2
7,"COc1ccc(CC(=O)N[C@@H](Cc2ccccc2)C(=O)NCCCC[C@@H](C(=O)O)N(CC(C)C)S(=O)(=O)c2ccc(N)cc2)cc1 [Example 163, Nα-(4-Aminobenzenesulfonyl)-Nα-isobutyl-Nε-[N′α-(4-methoxyphenylacetyl)-L-phenylalanyl]-L-lysine]",0.27
8,"COc1ccc(CC(=O)N[C@@H](Cc2c[nH]c3ccccc23)C(=O)NCCCC[C@@H](C(=O)O)N(CC(C)C)S(=O)(=O)c2ccc(C)cc2)cc1 [Example 164, Nα-Isobutyl-Nα-(4-methylbenzenesulfonyl)-Nε-[N′α-(4-methoxyphenylacetyl)-L-tryptophanyl]-L-lysine]",0.32
9,"COc1ccc(CC(=O)N[C@@H](Cc2c[nH]c3ccccc23)C(=O)NCCCC[C@@H](CO)N(CC(C)C)S(=O)(=O)c2ccc(C)cc2)cc1 [Example 165, (2S,2′S) 2-N-Isobutyl-2-N-(4-methylbenzenesulfonyl)-6-N-[N′α-(4-methoxyphenylacetyl)-S-tryptophanyl]-2,6-diaminohexanol]",1.1
10,"CC(C)CN([C@H](CO)CCCCNC(=O)[C@H](Cc1c[nH]c2ccccc12)NS(=O)(=O)c1cccs1)S(=O)(=O)c1ccc(N)cc1 [Example 166, (2S,2′S) 2-N-(4-Aminobenzenesulfonyl)-2-N-isobutyl-6-N-[N′α-(2-thiophenesulfonyl)-S-tryptophanyl]-2,6-diaminohexanol]",1
11,"CC(C)CN([C@H](CO)CCCCNC(=O)[C@H](Cc1c[nH]c2ccccc12)NS(=O)(=O)c1ccccc1)S(=O)(=O)c1ccc(N)cc1 [Example 167, (2S,2′S) 2-N-(4-Aminobenzenesulfonyl)-2-N-isobutyl-6-N-(N′α-benzenesulfonyl-S-tryptophanyl)-2,6-diaminohexanol]",1.5
12,"CC(=O)N[C@@H](Cc1c[nH]c2ccccc12)C(=O)NCCCC[C@@H](CO)N(CC(C)C)S(=O)(=O)c1ccc(N)cc1 [Example 168, (2S,2′S) 2-N-(4-Aminobenzenesulfonyl)-2-N-isobutyl-6-N-(N′α-acetyl-S-tryptophanyl)-2,6-diaminohexanol]",3.8
13,"CC(C)CN([C@H](CO)CCCCNC(=O)[C@H](Cc1c[nH]c2ccccc12)NC(=O)C(C)(C)C)S(=O)(=O)c1ccc(N)cc1 [Example 169, (2S,2′S) 2-N-(4-Aminobenzenesulfonyl)-2-N-isobutyl-6-N-(N′α-pivaloyl-S-tryptophanyl)-2,6-diaminohexanol]",1.2
14,"Cc1ccc(S(=O)(=O)N(CC(C)C)[C@H](CO)CCCCNC(=O)[C@H](Cc2c[nH]c3ccccc23)NC(=O)N2CCOCC2)cc1 [Example 171, (2S,2′S) 2-N-Isobutyl-2-N-(4-methylbenzenesulfonyl)-6-N-[N′α-(4-morpholinecarbonyl)-S-tryptophanyl]-2,6-diaminohexanol]",7.9
15,"COc1ccc(S(=O)(=O)N(CC(C)C)[C@H](CO)CCCCNC(=O)[C@H](Cc2c[nH]c3ccccc23)NC(C)=O)cc1 [Example 172, (2S,2′S) 2-N-Isobutyl-2-N-(4-methoxybenzenesulfonyl)-6-N-(N′α-acetyl-S-tryptophanyl)-2,6-diaminohexanol]",> 300
16,"COc1ccc(S(=O)(=O)N(CC2CCCC2)[C@H](CO)CCCCNC(=O)[C@H](Cc2c[nH]c3ccccc23)NC(C)=O)cc1 [Example 173, (2S,2′S) 2-N-Cyclopentylmethyl-2-N-(4-methoxybenzenesulfonyl)-6-N-(N′α-acetyl-S-tryptophanyl)-2,6-diaminohexanol]",11
17,"COc1ccc(CN(CC(=O)NCCCC[C@@H](C(=O)O)N(CC(C)C)S(=O)(=O)c2ccc(C)cc2)c2ccccc2)cc1 [Example 174, Nα-Isobutyl-Nα-(4-methylbenzenesulfonyl)-Nε-[N′α-(4-methoxybenzyl)-N′α-phenylglycyl]-L-lysine]",1.4
18,"COc1ccc(CN(CC(=O)NCCCC[C@@H](CO)N(CC(C)C)S(=O)(=O)c2ccc(C)cc2)c2ccccc2)cc1 [Example 175, (2S) 2-N-Isobutyl-2-N-(4-methylbenzenesulfonyl)-6-N-[N′α-(4-methoxybenzyl)-N′α-phenylglycyl]-2,6-diaminohexanol]",6.3
19,"COc1ccc(CN(CC(=O)NCCCC[C@@H](CO)N(CC(C)C)S(=O)(=O)c2ccc(N)cc2)c2ccccc2)cc1 [Example 176, (2S) 2-N-(4-Aminobenzenesulfonyl)-2-N-isobutyl-6-N-[N′α-(4-methoxybenzyl)-N′α-phenylglycyl]-2,6-diaminohexanol]",2.4
20,"COC(=O)N[C@@H](Cc1ccccc1)C(=O)NCCCC[C@@H](CO)N(CC(C)C)S(=O)(=O)c1ccc(N)cc1 [Example 177, (2S,2′S) 2-N-(4-Aminobenzenesulfonyl)-2-N-isobutyl-6-N-(N′α-methoxycarbonyl-S-phenylalanyl)-2,6-diaminohexanol]",6.6
21,"COC(=O)N[C@@H](Cc1c[nH]c2ccccc12)C(=O)NCCCC[C@@H](CO)N(CC(C)C)S(=O)(=O)c1ccc(N)cc1 [Example 178, (2S,2′S) 2-N-(4-Aminobenzenesulfonyl)-2-N-isobutyl-6-N-(N′α-methoxycarbonyl-S-tryptophanyl)-2,6-diaminohexanol]",2
22,"CC(C)CN([C@H](CO)CCCCNC(=O)[C@H](Cc1c[nH]c2ccccc12)NS(=O)(=O)c1ccc([N+](=O)[O-])cc1)S(=O)(=O)c1ccc(N)cc1 [Example 179, (2S,2′S) 2-N-(4-Aminobenzenesulfonyl)-2-N-isobutyl-6-N-[N′α-(4-nitrobenzenesulfonyl)-S-tryptophanyl]-2,6-diaminohexanol]",32
23,"CC(C)CN([C@H](CO)CCCCNC(=O)[C@H](Cc1ccccc1)NC(=O)N1CCOCC1)S(=O)(=O)c1ccc(N)cc1 [Example 180, (2S,2′S) 2-N-(4-Aminobenzenesulfonyl)-2-N-isobutyl-6-N-[N′α-(4-morpholinecarbonyl)-S-phenylalanyl]-2,6-diaminohexanol]",2.4
24,"CC(C)CN([C@H](CO)CCCCNC(=O)CN(Cc1ccccc1)c1ccccc1)S(=O)(=O)c1ccc(N)cc1 [Example 182, (2S) 2-N-(4-Aminobenzenesulfonyl)-2-N-isobutyl-6-N-(N′α-benzyl-N′α-phenylglycyl)-2,6-diaminohexanol]",2.4
25,"CC(C)CN([C@H](CO)CCCCNC(=O)[C@H](Cc1c[nH]c2ccccc12)NC(=O)C(C)C)S(=O)(=O)c1ccc(N)cc1 [Example 184, (2S,2′S) 2-N-(4-Aminobenzenesulfonyl)-2-N-isobutyl-6-N-(N′α-isobutyryl-S-tryptophanyl)-2,6-diaminohexanol]",1.6
26,"CC(C)CN([C@H](CO)CCCCNC(=O)[C@H](Cc1c[nH]c2ccccc12)NC(=O)CC(C)(C)C)S(=O)(=O)c1ccc(N)cc1 [Example 185, (2S,2′S) 2-N-(4-Aminobenzenesulfonyl)-2-N-isobutyl-6-N-(N′α-tert-butylacetyl-S-tryptophanyl)-2,6-diaminohexanol]",3.1

# Same assay, conditions: Table 1, compounds of formula I; read-out: Ki (anti-protease activity)
row,Structure (SMILES),Ki [nM]
1,"Cc1ccc(S(=O)(=O)N(CC(C)C)[C@H](CO)CCCCNC(=O)CN(CCc2ccccc2)c2ccccc2)cc1 [Example 160, (2S) 2-N-Isobutyl-2-N-(4-methylbenzenesulfonyl)-6-N-(N′α-phenethyl-N′α-phenylglycyl]-2,6-diaminohexanol]",52
2,"CC(C)CN([C@H](CO)CCCCNC(=O)[C@H](Cc1c[nH]c2ccccc12)NC(=O)N1CCOCC1)S(=O)(=O)c1ccc(N)cc1 [Example 170, (2S,2′S) 2-N-(4-Aminobenzenesulfonyl)-2-N-isobutyl-6-N-[N′α-(4-morpholinecarbonyl)-S-tryptophanyl]-2,6-diaminohexanol]",1.1
3,"CC(C)CN(CC(=O)NCCCC[C@@H](CO)N(CC(C)C)S(=O)(=O)c1ccc(N)cc1)c1ccccc1 [Example 181, (2S) 2-N-(4-Aminobenzenesulfonyl)-2-N-isobutyl-6-N-(N′α-isobutyl-N′α-phenylglycyl)-2,6-diaminohexanol]",16
4,"Cc1ccc(S(=O)(=O)N(CC(C)C)[C@H](CO)CCCCNC(=O)[C@@H](N)Cc2c[nH]c3ccccc23)cc1 [Example 183, (2S,2′S) 2-N-Isobutyl-2-N-(4-methylbenzenesulfonyl)-6-N-(S-tryptophanyl)-2,6-diaminohexanol Trifluoroacetic Acid Salt]",4.4
